The numbers were not newly measured in patent publication US8343778B2, “Microfluidic microarray assemblies and methods of manufacturing and using” (Simon Fraser University, priority 2004, dated 2013), which cites them from elsewhere.

This series addresses T1, Ure2p (Saccharomyces cerevisiae, UniProt P23202).
T1 sequence (P23202 1-354): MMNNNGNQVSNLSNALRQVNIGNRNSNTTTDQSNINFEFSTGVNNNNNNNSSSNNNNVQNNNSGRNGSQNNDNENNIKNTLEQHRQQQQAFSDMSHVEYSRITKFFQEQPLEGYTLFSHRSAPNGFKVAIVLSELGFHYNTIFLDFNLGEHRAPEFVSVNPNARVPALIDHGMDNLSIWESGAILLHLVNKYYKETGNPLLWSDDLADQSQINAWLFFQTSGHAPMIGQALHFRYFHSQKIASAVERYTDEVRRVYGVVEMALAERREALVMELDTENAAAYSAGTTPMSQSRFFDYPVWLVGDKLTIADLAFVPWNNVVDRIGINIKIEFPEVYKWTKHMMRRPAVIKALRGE
The note with it: high-density SMA of 1,3-dioxane-based small molecules exposed to fluorescently labeled Ure2p.

Turning to uretupamine, the “binding of fluorescently labeled Ure2p to arrayed small molecule” value is “Ure2p-binding”.
